# Experimental data taken from ChEMBL document CHEMBL1201862, “PubChem BioAssay data set” (2004).
#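 Where inhibition never reached the appropriate level, the endpoint shown equals the highest concentration tested. Otherwise, values were interpolated linearly from a five-concentration, 48-hour dose response in 96-well plates. Here, GI50 denotes the concentration required for 50% inhibition of growth.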 Calls of active or inactive are those of the source. No stated cut-off is given here; in the data, active = GI50 up to about 1.1 µM and inactive = higher.
# Assays:
# Experiment in all cases: DTP human tumour cell line panel, 48 h
# [1] = system: Malme-3M
# [2] = system: HCC 2998
# [3] = system: OVCAR-3
# [4] = system: Hs-578T
# [5] = system: NCI-H23
# [6] = system: DU-145
# [7] = system: ACHN
# [8] = system: HL-60
# [9] = system: MDA-MB-435
# [10] = system: SF-539
# [11] = system: U-251
# [12] = system: M14
# [13] = system: SNB-75
# [14] = system: NCI-H460
# [15] = system: SR
# [16] = system: RXF 393
# [17] = system: MCF7
# [18] = system: LOX IMVI
# [19] = system: SF-268
# [20] = system: A498
Structure (SMILES),GI50 [1],GI50 [2],GI50 [3],GI50 [4],GI50 [5],GI50 [6],GI50 [7],GI50 [8],GI50 [9],GI50 [10],GI50 [11],GI50 [12],GI50 [13],GI50 [14],GI50 [15],GI50 [16],GI50 [17],GI50 [18],GI50 [19],GI50 [20]
C=C1C[C@H](O)[C@H](Br)C(C)(C)C12CCC(C)(Cl)C(Br)C2 (stereo partly drawn),5.87 µM (inactive),5.52 µM (inactive),4.3 µM (inactive),5.2 µM (inactive),0.445 µM (active),4.84 µM (inactive),5.05 µM (inactive),0.508 µM (active),2.3 µM (inactive),15.6 µM (inactive),0.272 µM (active),2.36 µM (inactive),1.94 µM (inactive),1.69 µM (inactive),2.19 µM (inactive),1.95 µM (inactive),3.25 µM (inactive),10 µM (inactive),6.87 µM (inactive),
CN1C(=O)C2(Cc3cn(C45CC67SSC(CO)(C(=O)N6C4Nc4ccccc45)N(C)C7=O)c4ccccc34)SSC1(CO)C(=O)N2C (stereo not drawn),< 0.01 µM (active),0.0229 µM (active),0.0163 µM (active),0.0282 µM (active),< 0.01 µM (active),0.0261 µM (active),< 0.01 µM (active),0.013 µM (active),0.0335 µM (active),0.011 µM (active),0.0369 µM (active),< 0.01 µM (active),0.0423 µM (active),0.218 µM (active),< 0.01 µM (active),,< 0.01 µM (active),0.0114 µM (active),0.0191 µM (active),0.0291 µM (active)
CN1CC[C@]23c4c5ccc(O)c4O[C@H]2C(O)CC[C@@]3(O)[C@H]1C5 (stereo partly drawn),> 100 µM (inactive),,> 100 µM (inactive),> 100 µM (inactive),> 100 µM (inactive),> 100 µM (inactive),> 100 µM (inactive),> 100 µM (inactive),> 100 µM (inactive),> 100 µM (inactive),> 100 µM (inactive),> 100 µM (inactive),,,> 100 µM (inactive),,> 100 µM (inactive),> 100 µM (inactive),> 100 µM (inactive),> 100 µM (inactive)
Fc1ccc(NCn2nc(COc3ccccc3Cl)n(/N=C/c3ccc(-c4ccc(Cl)cc4Cl)o3)c2=S)cc1Cl,,,37.9 µM (inactive),82.6 µM (inactive),27.4 µM (inactive),47.6 µM (inactive),29.5 µM (inactive),15.8 µM (inactive),41.4 µM (inactive),31.3 µM (inactive),25.8 µM (inactive),28.5 µM (inactive),,32.7 µM (inactive),16.6 µM (inactive),21.5 µM (inactive),26.7 µM (inactive),23.9 µM (inactive),79.1 µM (inactive),16.1 µM (inactive)
COC(=O)[C@@H]1C=C[C@@H](C#N)n2c(=O)n(-c3ccccc3)c(=O)n21,,33.3 µM (inactive),13.9 µM (inactive),23.7 µM (inactive),36.9 µM (inactive),25.5 µM (inactive),38.5 µM (inactive),,42 µM (inactive),20.8 µM (inactive),33.8 µM (inactive),25.9 µM (inactive),26.7 µM (inactive),,20.6 µM (inactive),,19.5 µM (inactive),10.6 µM (inactive),27.9 µM (inactive),41.1 µM (inactive)
C[N+]12C=CC=C1C(N1CCCC1)c1scc(-c3ccc(F)cc3)c12 (stereo not drawn),60.4 µM (inactive),,14.6 µM (inactive),21.5 µM (inactive),,81.7 µM (inactive),,,30.6 µM (inactive),,6.71 µM (inactive),69.8 µM (inactive),20.4 µM (inactive),,11 µM (inactive),24.5 µM (inactive),22 µM (inactive),40.8 µM (inactive),32.4 µM (inactive),43.3 µM (inactive)
COc1ccc(OC)c(-c2nc3n(c2/C=C2/C(=O)Nc4ccccc42)CCS3)c1,92.7 µM (inactive),,36.1 µM (inactive),44.8 µM (inactive),> 100 µM (inactive),64.4 µM (inactive),90.6 µM (inactive),33.9 µM (inactive),17.5 µM (inactive),47.9 µM (inactive),67 µM (inactive),37.4 µM (inactive),22.3 µM (inactive),35 µM (inactive),32.8 µM (inactive),21.4 µM (inactive),46.7 µM (inactive),51.2 µM (inactive),67.5 µM (inactive),48.5 µM (inactive)
CCOc1c(OC)cc(C2c3cc4c(c(OCC)c3CC3COC(=O)C32)OCO4)cc1OC (stereo not drawn),11.1 µM (inactive),,1.12 µM (active),1.99 µM (inactive),1.82 µM (inactive),2.69 µM (inactive),1.79 µM (inactive),,0.272 µM (active),1.75 µM (inactive),1.63 µM (inactive),3.15 µM (inactive),5.11 µM (inactive),3.21 µM (inactive),0.247 µM (active),4.6 µM (inactive),0.574 µM (active),1.67 µM (inactive),7.21 µM (inactive),10.9 µM (inactive)
C=C1C(=O)OC2/C=C(\CO)C3OC3C3OC3(C)CC(OC(=O)/C(=C/C)CO)C12 (stereo not drawn),25.5 µM (inactive),> 100 µM (inactive),> 100 µM (inactive),> 100 µM (inactive),60.3 µM (inactive),> 100 µM (inactive),49.5 µM (inactive),,53.8 µM (inactive),64 µM (inactive),55.2 µM (inactive),> 100 µM (inactive),> 100 µM (inactive),> 100 µM (inactive),28.2 µM (inactive),47.1 µM (inactive),34.8 µM (inactive),48.6 µM (inactive),37.2 µM (inactive),> 100 µM (inactive)
N=C(N)NS(=O)(=O)c1ccc(Nc2c3ccccc3nc3c(C(=O)NC(CO)(CO)CO)cccc23)cc1,19.4 µM (inactive),32.1 µM (inactive),27.5 µM (inactive),11.2 µM (inactive),36.5 µM (inactive),32.4 µM (inactive),11.1 µM (inactive),18.9 µM (inactive),24.9 µM (inactive),,12.2 µM (inactive),30.6 µM (inactive),2.3 µM (inactive),2.88 µM (inactive),12.5 µM (inactive),,3.44 µM (inactive),18.7 µM (inactive),19.5 µM (inactive),19.3 µM (inactive)
COC(=O)[C@@]12OC[C@]34[C@H]([C@@H](O)[C@@H]1O)[C@@]1(C)CC(=O)C(O)=C(C)[C@@H]1C[C@H]3OC(=O)[C@H](OC(=O)/C=C(\C)C(C)C)[C@@H]24 [BRUCEANTIN],0.02 µM (active),,0.0247 µM (active),0.00553 µM (active),0.02 µM (active),0.0142 µM (active),0.0026 µM (active),,0.0188 µM (active),0.02 µM (active),0.0242 µM (active),0.00346 µM (active),0.02 µM (active),0.02 µM (active),0.00512 µM (active),0.0201 µM (active),0.02 µM (active),0.02 µM (active),0.0205 µM (active),0.02 µM (active)
